Source: US12285454B2, “Anti-aging chinese herb extract, extraction method and use thereof” (HEALTH LIFE BIOSCIENCES INC, priority 2019, dated 2025)

Target: T1, telomerase (Homo sapiens, UniProt O14746)
T1 construct: endogenous in cells; host or cells: CCL137 normal human fibroblast cell line (ATCC)
Experiment: Telomerase activity by PCR-ELISA (TRAP) in normal human fibroblasts
Assay type: cell-based
Conditions: CCL137 normal human fibroblasts, X ± S, N = 9
From the text: • Telomerase Activity Assay Kit (Roche, Switzerland); • CCL137 human fibroblast cell lines (American Type Culture Collection (ATCC)); • Ginseng-Astragalus membranaceus extract: the extract prepared in Example 1 of the present invention; • Astragalus membranaceus extract: the Astragalus membranaceus extract prepared in Example 3 of the present invention; • Ginseng extract: the ginseng extract prepared in Example 2 of the present invention. Method The effects of different extracts on the telomerase activity were detected by PCR-ELISA. Principle: This method is based on establishment of Telomeric Repeat Amplification Protocol (TRAP), which is used for PCR Amplification of telomerase mediated derivatives and combined with the subsequent ELISA method. […]
For the sample of each group, to the EP tube, 20 μl of the denaturing reagent were added and marked, and 5 μl of the obtained product after the PCR amplification was added. […] The absorbance value is then detected at 450 nm using the microplate reader and A690 nm was taken as a reference, and the value of the negative control will be subtracted from the absorption value for the sample of each group. […]
The test results were analyzed and processed by a SPSS18.0 statistical software. […]
The test methods and procedures for detection of the telomerase activity were the same as the Test Example 1, and the measured results were shown in Table 5.

T1 sequence (O14746 whole entry): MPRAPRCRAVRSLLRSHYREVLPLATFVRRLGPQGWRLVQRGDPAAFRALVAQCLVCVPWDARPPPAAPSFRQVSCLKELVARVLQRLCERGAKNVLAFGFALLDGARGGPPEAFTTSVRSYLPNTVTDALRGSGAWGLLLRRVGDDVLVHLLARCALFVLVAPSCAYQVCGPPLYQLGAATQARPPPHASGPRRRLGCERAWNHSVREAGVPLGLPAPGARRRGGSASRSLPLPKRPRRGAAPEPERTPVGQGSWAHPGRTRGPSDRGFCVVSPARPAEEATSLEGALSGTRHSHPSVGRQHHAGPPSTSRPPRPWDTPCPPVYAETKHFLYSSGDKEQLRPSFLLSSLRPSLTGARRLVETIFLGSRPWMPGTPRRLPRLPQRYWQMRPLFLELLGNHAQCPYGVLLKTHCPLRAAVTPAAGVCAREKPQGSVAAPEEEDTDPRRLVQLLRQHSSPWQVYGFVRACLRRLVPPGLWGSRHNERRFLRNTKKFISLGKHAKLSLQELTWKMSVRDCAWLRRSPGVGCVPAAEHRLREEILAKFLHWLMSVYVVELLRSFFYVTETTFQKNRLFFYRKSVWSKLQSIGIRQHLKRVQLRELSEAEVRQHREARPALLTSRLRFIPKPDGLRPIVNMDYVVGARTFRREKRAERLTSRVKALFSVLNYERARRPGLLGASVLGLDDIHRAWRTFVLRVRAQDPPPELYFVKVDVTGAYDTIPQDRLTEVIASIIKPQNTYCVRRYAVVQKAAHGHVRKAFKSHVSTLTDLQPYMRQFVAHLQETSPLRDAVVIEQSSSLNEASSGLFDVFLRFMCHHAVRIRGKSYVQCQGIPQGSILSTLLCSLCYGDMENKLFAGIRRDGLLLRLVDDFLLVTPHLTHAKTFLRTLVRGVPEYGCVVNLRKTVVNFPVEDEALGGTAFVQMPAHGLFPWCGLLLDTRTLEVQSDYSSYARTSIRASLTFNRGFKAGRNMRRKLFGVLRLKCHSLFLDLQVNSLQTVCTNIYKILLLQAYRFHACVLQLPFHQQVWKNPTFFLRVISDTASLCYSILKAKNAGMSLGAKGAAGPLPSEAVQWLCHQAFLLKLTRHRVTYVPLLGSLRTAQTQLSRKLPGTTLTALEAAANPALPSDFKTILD

With Astragaloside as the substance, how does the “Telomerase activity (ΔA)” value (Table 5, high concentration group, extract concentration 100 ug/mL) read?
Its value is 0.436.

What about the “Telomerase activity (ΔA)” value (Table 5, medium concentration group, extract concentration 50 ug/mL) of the same substance?
The value was 0.453.
